# System: 873145-292-R-J1-PDC complex spheroid viability
# Test: Anticancer human tumor 873145-292-R-J1-PDC patient-derived renal clear cell carcinoma cell line growth inhibition [POLQ]
# Details: for IC50: curve of first compound; for viability, T/C: stronger effect = lower value
# Description: Multicellular complex tumor spheroid response to Polymerase (POL) inhibitors (novobiocin, ART-558, RP6685) in combination with a variety of drugs and investigational agents in selected tumor cell lines
# The POL inhibitors (novobiocin, ART-558, and RP6685) were evaluated both individually and in combination with standard of care and investigational anticancer small molecules within a complex spheroid model of solid tumors. . Complex spheroids include a stromal component modeled by human endothelial cells (HUVEC) and fibroblasts modeled by human mesenchymal stem cells (MSCs). The concentration ranges selected for each drug and investigational agent were based upon clinically achievable concentrations if the clinical Cmax of the agent was known.
# Compounds. The drugs and investigational agents: novobiocin (NSC847541), ART-558 (NSC835418), RP-6685 (NSC848927), peposertib (NSC802822), ceralasertib (NSC780249), elimusertib (NSC800525), camonsertib (NSC841442), AZD-1390 (NSC803789), olaparib (NSC753686), talazoparib (NSC767125), rucaparib (NSC756644), sotorasib (NSC818433), MRTX-1133 (NSC836407), SN-38 (NSC673596), topotecan (NSC609699), epotoside (NSC141540), doxorubicin (NSC123127), gemcitabine (NSC613327), 5-fluorouracil (NSC19893), paclitaxel (NSC125973), vemurafenib (NSC761431), MSA-2 (NSC828583), SN-011 (NSC837082), adavosertib (NSC754352), prexasertib (NSC758257), carboplatin (NSC241240) and oxaliplatin (NSC266046), were obtained from the National Cancer Institute (NCI) Developmental Therapeutics Program Chemical Repository (21). The FDA-approved anticancer drug set is available from the Developmental Therapeutics Program at https://dtp.cancer.gov/organization/dscb/obtaining/. […] The stock solutions were prepared in dimethyl sulfoxide (DMSO, Sigma-Aldrich, St. Louis, MO, cat. D2650), except for the platinum compounds which were prepared in saline (Quality Biological, Gaithersburg, MD, cat. 114-055-101), at 800-fold the tested concentration and stored at -70 degrees C prior to their use. All drugs and investigational agents were tested over a range starting from a high concentration at or near the clinical Cmax and decreasing in half-log increments. If the clinical Cmax for an agent had not been determined, the highest concentration tested was 10 microM, except for SN-38, which was tested at a high concentration of 1 microM.
# Cell Culture. All cells were maintained in an incubator at 37 degrees C and 5% CO2 with 95% humidity. The PDC lines were cultured according to standard operating procedures established by the NCI PDMR (https://pdmr.cancer.gov). Table 3 of the manuscript, lists the cell lines along with the number of the three cell types plated to form the mct-spheroids and media for tumor cell growth. After thawing, all PDC lines, except 997537-175-T-J1-PDC and 415267-285-R-J2-PDC, were cultured in Matrigel-coated flasks prepared with a working solution of 1X Ham's F-12 nutrient mix, without supplementation (Thermo Fisher Scientific, cat. 11765054), 100 U/mL penicillin-streptomycin (Thermo Fisher Scientific, cat. 15140122), and 2.5% Matrigel (Corning Inc., Corning, NY, cat. 354248) for the first three passages. The two PDC lines 997537-175-T-J1-PDC and 415267-285-R-J2-PDC were cultured on uncoated flasks. The 857933-349-R-J2-PDC line was cultured in 6C/Colon 1B media containing advanced DMEM/F-12 (Thermo Fisher Scientific, cat. 12634028), 10 mM HEPES (Thermo Fisher Scientific, cat. 15630080), 1X GlutaMAX supplement (Thermo Fisher Scientific, cat. 35050061), 0.1 mg/mL primocin (InvivoGen, San Diego, CA, cat. ant-pm-2), 10% defined fetal bovine serum, heat inactivated (HyClone Laboratories Inc., Logan, UT, cat. SH30070.03HI), 50% L-WRN conditioned media (ATCC, cat. CRL-3276), 1.25 mM N-Acetyl-L-cysteine (Sigma-Aldrich, cat. A9165), 10 mM nicotinamide (Sigma-Aldrich, cat. N0636), 1X B-27 supplement (Thermo Fisher Scientific, cat. 17504044), 1X N-2 supplement (Thermo Fisher Scientific, cat. […]
# 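Further: spheroids exposed to compounds for 7 days before viability readout.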
# 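Wherever viability, T/C is given: luminescence signal used as surrogate for viable cell content; 100% = DMSO vehicle control viability.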
compound,measurement,setting,value
C=CCn1c(=O)c2cnc(Nc3ccc(N4CCN(C)CC4)cc3)nc2n1-c1cccc(C(C)(C)O)n1 + Cc1cccc(N(C)C(=O)C2C(O)CCN2c2nc(C)cc(C(F)(F)F)c2C#N)c1,IC50,second compound 0.0316 µM,> 1000 nM
same,IC50,second compound 0.1 µM,> 1000 nM
same,IC50,second compound 0.316 µM,> 1000 nM
same,IC50,second compound 1 µM,> 1000 nM
same,IC50,second compound 3.16 µM,> 1000 nM
same,IC50,second compound 10 µM,> 1000 nM
same,"viability, T/C","second compound 0.0316 µM, first compound 0.00316 µM",93.1%
same,"viability, T/C","second compound 0.0316 µM, first compound 0.01 µM",104%
same,"viability, T/C","second compound 0.0316 µM, first compound 0.0316 µM",102%
same,"viability, T/C","second compound 0.0316 µM, first compound 0.1 µM",92%
same,"viability, T/C","second compound 0.0316 µM, first compound 0.316 µM",83.3%
same,"viability, T/C","second compound 0.0316 µM, first compound 1 µM",77.8%
same,"viability, T/C","second compound 0.1 µM, first compound 0.00316 µM",101%
same,"viability, T/C","second compound 0.1 µM, first compound 0.01 µM",97.3%
same,"viability, T/C","second compound 0.1 µM, first compound 0.0316 µM",96%
same,"viability, T/C","second compound 0.1 µM, first compound 0.1 µM",87.1%
same,"viability, T/C","second compound 0.1 µM, first compound 0.316 µM",88.3%
same,"viability, T/C","second compound 0.1 µM, first compound 1 µM",76.7%
same,"viability, T/C","second compound 0.316 µM, first compound 0.00316 µM",101%
same,"viability, T/C","second compound 0.316 µM, first compound 0.01 µM",110%
same,"viability, T/C","second compound 0.316 µM, first compound 0.0316 µM",82.8%
same,"viability, T/C","second compound 0.316 µM, first compound 0.1 µM",94.6%
same,"viability, T/C","second compound 0.316 µM, first compound 0.316 µM",81.4%
same,"viability, T/C","second compound 0.316 µM, first compound 1 µM",74.9%
same,"viability, T/C","second compound 1 µM, first compound 0.00316 µM",89.8%
same,"viability, T/C","second compound 1 µM, first compound 0.01 µM",94.4%
same,"viability, T/C","second compound 1 µM, first compound 0.0316 µM",101%
same,"viability, T/C","second compound 1 µM, first compound 0.1 µM",85.8%
same,"viability, T/C","second compound 1 µM, first compound 0.316 µM",87.5%
same,"viability, T/C","second compound 1 µM, first compound 1 µM",75.5%
same,"viability, T/C","second compound 3.16 µM, first compound 0.00316 µM",97.7%
same,"viability, T/C","second compound 3.16 µM, first compound 0.01 µM",120%
same,"viability, T/C","second compound 3.16 µM, first compound 0.0316 µM",112%
same,"viability, T/C","second compound 3.16 µM, first compound 0.1 µM",91.3%
same,"viability, T/C","second compound 3.16 µM, first compound 0.316 µM",86.9%
same,"viability, T/C","second compound 3.16 µM, first compound 1 µM",81.7%
same,"viability, T/C","second compound 10 µM, first compound 0.00316 µM",93.2%
same,"viability, T/C","second compound 10 µM, first compound 0.01 µM",97.2%
same,"viability, T/C","second compound 10 µM, first compound 0.0316 µM",102%
same,"viability, T/C","second compound 10 µM, first compound 0.1 µM",85.1%
same,"viability, T/C","second compound 10 µM, first compound 0.316 µM",81.4%
same,"viability, T/C","second compound 10 µM, first compound 1 µM",75.3%

# Reference: PubChem BioAssay AID1963834 (Molecular Pharmacology Branch, DTP, NCI, 2024)
